Assay results reported in US9770469B2, “Methods of reprogramming renal cells” (Tel HaShomer Medical Research Infrastructure and Services …, priority 2009, dated 2017).

Key:
[1] = system: human fetal kidney cells; test: Western blot for Six2 and Wt1 after VPA; type: cell-based; conditions: 24 h after VPA exposure
Procedure: Cell Treatment: Cells were treated for 24 hours with growth medium supplemented with 1, 2, or 4 mM VPA (Sigma) or with H2O for control sample. Otherwise, cells were treated for 24 hours with growth medium supplemented with the combination of 75 μM TSA (Sigma) and 250 μM 5-AZA (Sigma) or with 100% Ethanol and Acetic Acid (Acetic Acid: H2O 1:1) for control sample. […] 24 hours prior to harvesting VPA at a concentration of 4 mM was added to the cell culture.
Western Blot: AK, FK (treated and untreated) and Melanoma cells were harvested with Tripsin/EDTA. Cell extracts were prepared with lysis buffer (50 mM Tris-HCl, 150 mM NaCl, 0.1 mM EDTA, 0.5 mM DTT, 1.5 mM MgCl, 0.5% Triton-X) and their concentrations were detected by BCA protein assay kit (Thermo scientific). 100 μg of total proteins were heated at 95° C. for 5 min with laemmli sample buffer (Bio-rad) and then were loaded on SDS-10% polyacrylamide gel. After electrophoresis, proteins were transferred to nitrocellulose membrane that was blocked with 5% nonfat dry milk overnight at 4° C. The membrane was reacted with the required antibodies, namely Six2 (Affinity Bioreagents), WT1 (Santa Cruz), goat anti-rabbit IgG (Jackson). The membrane was reacted with ECL substrate (Thermo scientific) and was exposed to medical x-ray film (Fuji).

[2] = system: adult kidney cells; test: Methylation immunoprecipitation (MeDIP) of Six2 and Wt1 promoters; type: cell-based, human
Procedure: […] (MeDIP): 10 μg of sonicated genomic DNA (100-400 bp in length) was denatured, incubated 0/N at 4° C. with […] of anti-methyl cytosine antibody (Diagenode, Belgium), and subsequently with 60 μl of protein A fast flow beads (Upstate Biotechnologies) for 2 hours at 4° C. The beads were washed and incubated with digestion buffer (50 mM Tris-HCl pH 8.0, 10 mM EDTA, 0.5% SDS) and proteinase K for 3 hours and the DNA extracted by phenol-chloroform and EtOH precipitation. The samples were tested by quantitative RT PCR with the indicated primers at table 2. The sonicated DNA served as input.

For `CCCC(CCC)C(=O)O` [VPA, valproic acid], the Six2 protein levels ([1]; 4 mM) was “increment”, the Wt1 protein levels ([1]; 2 and 4 mM) was “no changes” and the “DNA methylation on Wt1 promoter” value ([2]; VPA treatment) was “minimally effected”. For the same compound, the “DNA methylation at the Six2 promoter” value ([2]; with or without VPA) was “DNA hypomethylation at the Six2 promoter loci regardless of VPA treatment”.
